For assay [1], the target named is Serine/threonine-protein kinase mTOR (Rattus norvegicus, UniProt P42346). The assay is described as follows: Inhibition of rat brain mTOR assessed as p70S6k-GST protein phosphorylation after 30 mins by ELISA. On the technique in general: In an ELISA, binding on a coated surface is turned into a signal by an enzyme label.
A short description of assay [2]: Growth inhibition of human MDA468 cells after 3 days by MTS assay. The following applies: MDA-MB-468, 72 h. The format is functional, cell-based. In general terms: Tetrazolium dyes change colour on reduction, which living cells bring about.
The subject of the next assay is LNCaP. As to the kind of experiment: Growth inhibition of human LNCAP cells after 3 days by MTS assay. In kind it is functional, cell-based. The conditions noted are these: 72 h.
Assay [3] deals with Phosphatidylinositol 4,5-bisphosphate 3-kinase catalytic subunit alpha isoform (Homo sapiens, UniProt P42336). As to the kind of experiment: Inhibition of PI3Kalpha assessed as PIP3 accumulation after 24 mins by HTRF assay. In general terms: In TR-FRET formats the signal depends on donor and acceptor labels being close together.
Phosphatidylinositol 4,5-bisphosphate 3-kinase catalytic subunit alpha isoform, sequence (P42336 whole entry, canonical isoform): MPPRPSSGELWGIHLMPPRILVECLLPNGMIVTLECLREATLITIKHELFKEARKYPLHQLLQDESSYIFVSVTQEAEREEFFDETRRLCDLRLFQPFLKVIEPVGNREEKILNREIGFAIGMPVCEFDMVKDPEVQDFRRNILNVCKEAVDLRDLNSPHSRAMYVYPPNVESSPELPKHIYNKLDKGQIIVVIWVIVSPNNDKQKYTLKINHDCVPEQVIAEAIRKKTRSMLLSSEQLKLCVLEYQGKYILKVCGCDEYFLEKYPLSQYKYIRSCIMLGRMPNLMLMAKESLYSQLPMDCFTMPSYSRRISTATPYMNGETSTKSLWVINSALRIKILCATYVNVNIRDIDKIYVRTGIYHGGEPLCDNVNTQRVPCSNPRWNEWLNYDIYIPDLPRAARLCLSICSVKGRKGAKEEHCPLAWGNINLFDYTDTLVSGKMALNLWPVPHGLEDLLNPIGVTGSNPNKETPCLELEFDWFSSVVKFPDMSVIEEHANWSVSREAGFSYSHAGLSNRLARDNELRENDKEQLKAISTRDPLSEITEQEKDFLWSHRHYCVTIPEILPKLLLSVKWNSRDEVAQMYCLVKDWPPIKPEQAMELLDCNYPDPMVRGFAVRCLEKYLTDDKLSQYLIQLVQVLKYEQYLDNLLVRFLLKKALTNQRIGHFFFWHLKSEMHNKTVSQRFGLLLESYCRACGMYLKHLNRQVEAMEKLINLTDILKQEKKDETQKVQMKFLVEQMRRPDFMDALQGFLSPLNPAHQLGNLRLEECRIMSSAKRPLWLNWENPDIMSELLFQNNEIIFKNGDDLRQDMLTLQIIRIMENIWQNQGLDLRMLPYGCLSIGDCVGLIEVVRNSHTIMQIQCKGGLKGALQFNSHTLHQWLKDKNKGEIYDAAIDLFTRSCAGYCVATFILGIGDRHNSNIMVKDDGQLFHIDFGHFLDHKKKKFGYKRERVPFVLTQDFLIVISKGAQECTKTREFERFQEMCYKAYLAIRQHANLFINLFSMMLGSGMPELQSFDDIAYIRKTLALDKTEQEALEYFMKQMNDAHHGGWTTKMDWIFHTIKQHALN

From ChEMBL document CHEMBL1156956, “Triazines incorporating (R)-3-methylmorpholine are potent inhibitors of the mammalian target of rapamycin (mTOR) with selectivity over PI3Kalpha” (Bioorg Med Chem Lett, 2010) come the findings set out here.

As a reminder, the IC50 is the concentration that inhibits the measured activity by half.

Regarding `C[C@@H]1COCCN1c1nc(-c2ccc(NC(=O)Nc3cccnc3)cc2)nc(N2C[C@@H]3C[C@H]2CO3)n1`, the IC50 in assay [1] worked out at 3.6 nM; in assay [2], 300 nM; in the assay with LNCaP, 250 nM.

For the compound `C[C@@H]1COCCN1c1nc(-c2ccc(NC(=O)Nc3cccnc3)cc2)nc(N2CCOC[C@H]2C)n1`, the results for the concentration for half-maximal inhibition (IC50) (in assay [1]; in assay [2]; in the assay on LNCaP) were 0.2 nM, 100 nM and 12 nM, respectively.

Consider `C[C@@H]1COCCN1c1nc(-c2ccc(NC(=O)Nc3ccc(N4CCN(C)CC4)nc3)cc2)nc(N2CCOC[C@H]2C)n1`, for which the results for the concentration for half-maximal inhibition (IC50) (in assay [1]; in assay [2]; with LNCaP) were 1.7 nM, 40 nM and 12 nM, respectively.

For `C[C@@H]1COCCN1c1nc(-c2ccc(NC(=O)Nc3ccc(N4CCN(C)CC4)cc3)cc2)nc(N2CCOC[C@H]2C)n1`, the IC50 in assay [1] turned out to be 1.1 nM; in assay [2] it was 10 nM; with LNCaP, 3 nM.

With `C[C@@H]1COCCN1c1nc(-c2ccc(NC(=O)Nc3ccc(N4CCC(N(C)C)CC4)cc3)cc2)nc(N2CCOC[C@H]2C)n1`, the IC50 in assay [1] amounted to 1.9 nM; in assay [2] it was 80 nM.

Take `C[C@@H]1COCCN1c1nc(-c2ccc(NC(=O)Nc3ccc(OCCN(C)C)cc3)cc2)nc(N2CCOC[C@H]2C)n1`: the half-inhibitory concentration (IC50) in assay [1] was 0.7 nM; in assay [2], 45 nM; in assay [3] it was 314 nM; in the assay on LNCaP, 8 nM.

Take `C[C@@H]1COCCN1c1nc(-c2ccc(NC(=O)Nc3ccc(C(=O)N4CCN(C)CC4)cc3)cc2)nc(N2CCOC[C@H]2C)n1`: the concentration for half-maximal inhibition (IC50) is 1.7 nM in assay [1], below 0.8 nM in assay [2] and below 0.8 nM in the assay on LNCaP.

Consider `C[C@@H]1COCCN1c1nc(-c2ccc(NC(=O)Nc3ccc(C(=O)N4CCC(N(C)C)CC4)cc3)cc2)nc(N2CCOC[C@H]2C)n1`, for which the IC50 in assay [1] was 0.5 nM; in assay [2] it was 5 nM; in assay [3], 55 nM.

Consider `C[C@@H]1COCCN1c1nc(-c2ccc(NC(=O)Nc3ccc(C(=O)N(C)C)cc3)cc2)nc(N2CCOC[C@H]2C)n1`, for which the results for the IC50 (in assay [1]; in assay [2]; in the assay on LNCaP) were 0.5 nM, below 0.8 nM and below 0.8 nM, respectively.

In assay [2], `C[C@@H]1COCCN1c1nc(-c2ccc(NC(=O)Nc3ccc(N4CCN(C)CC4)nc3)cc2)nc(C2CCOCC2)n1` displayed an IC50 of 52 nM.

Regarding `C[C@@H]1COCCN1c1nc(-c2ccc(NC(=O)Nc3ccc(N4CCN(C)CC4)cc3)cc2)nc(C2CCOCC2)n1`, the values for the IC50 (in assay [1]; in assay [2]; in the assay with LNCaP) were 0.7 nM, 6 nM and 1 nM, respectively.

As for `C[C@@H]1COCCN1c1nc(-c2ccc(NC(=O)Nc3ccc(N4CCNCC4)cc3)cc2)nc(C2CCOCC2)n1`, the half-maximal inhibitory concentration (IC50) is 0.8 nM in assay [1], 9 nM in assay [2] and 2 nM with LNCaP.

In the case of `C[C@@H]1COCCN1c1nc(-c2ccc(NC(=O)Nc3ccc(N4CCC(N(C)C)CC4)cc3)cc2)nc(C2CCOCC2)n1`, the IC50 in assay [1] came to 1.7 nM; in assay [2], 38 nM; in the assay with LNCaP it was 16 nM.

Regarding `C[C@@H]1COCCN1c1nc(-c2ccc(NC(=O)Nc3ccc(C(=O)N4CCN(C)CC4)cc3)cc2)nc(C2CCOCC2)n1`, the IC50 is 1 nM in assay [1], below 0.8 nM in assay [2] and below 0.8 nM in the assay on LNCaP.

On to `CC(C)N1CCN(C(=O)c2ccc(NC(=O)Nc3ccc(-c4nc(C5CCOCC5)nc(N5CCOC[C@H]5C)n4)cc3)cc2)CC1`, for which the IC50 in assay [1] was 0.7 nM; in assay [2], below 0.8 nM; in the assay with LNCaP it was below 0.8 nM.

As for `C[C@@H]1COCCN1c1nc(-c2ccc(NC(=O)Nc3cccnc3)cc2)nc(C2CCOCC2)n1`, the figures for the IC50 in assay [1] and in assay [2] were 0.6 nM and 80 nM, respectively.

Turning to `C[C@@H]1COCCN1c1nc(-c2ccc(NC(=O)Nc3ccncc3)cc2)nc(N2CCOC[C@H]2C)n1`, the values for the IC50 in assay [1] and in assay [2] were 0.2 nM and 40 nM, respectively.

With `C[C@@H]1COCCN1c1nc(-c2ccc(NC(=O)Nc3ccc(CN(C)C)cc3)cc2)nc(N2CCOC[C@H]2C)n1`, the 50% inhibitory concentration (IC50) came out at 2 nM in assay [1], 50 nM in assay [2] and 21 nM in the assay with LNCaP.
